For orientation: IC50 means the concentration at which inhibition is half-maximal.

Molecules are shown by their SMILES.

Test [1] concerns the target T1, human recombinant HDAC6 (Homo sapiens, UniProt Q9UBN7).
T1 construct: purchased Calbiochem 382180
T1 sequence (Q9UBN7 1-1215): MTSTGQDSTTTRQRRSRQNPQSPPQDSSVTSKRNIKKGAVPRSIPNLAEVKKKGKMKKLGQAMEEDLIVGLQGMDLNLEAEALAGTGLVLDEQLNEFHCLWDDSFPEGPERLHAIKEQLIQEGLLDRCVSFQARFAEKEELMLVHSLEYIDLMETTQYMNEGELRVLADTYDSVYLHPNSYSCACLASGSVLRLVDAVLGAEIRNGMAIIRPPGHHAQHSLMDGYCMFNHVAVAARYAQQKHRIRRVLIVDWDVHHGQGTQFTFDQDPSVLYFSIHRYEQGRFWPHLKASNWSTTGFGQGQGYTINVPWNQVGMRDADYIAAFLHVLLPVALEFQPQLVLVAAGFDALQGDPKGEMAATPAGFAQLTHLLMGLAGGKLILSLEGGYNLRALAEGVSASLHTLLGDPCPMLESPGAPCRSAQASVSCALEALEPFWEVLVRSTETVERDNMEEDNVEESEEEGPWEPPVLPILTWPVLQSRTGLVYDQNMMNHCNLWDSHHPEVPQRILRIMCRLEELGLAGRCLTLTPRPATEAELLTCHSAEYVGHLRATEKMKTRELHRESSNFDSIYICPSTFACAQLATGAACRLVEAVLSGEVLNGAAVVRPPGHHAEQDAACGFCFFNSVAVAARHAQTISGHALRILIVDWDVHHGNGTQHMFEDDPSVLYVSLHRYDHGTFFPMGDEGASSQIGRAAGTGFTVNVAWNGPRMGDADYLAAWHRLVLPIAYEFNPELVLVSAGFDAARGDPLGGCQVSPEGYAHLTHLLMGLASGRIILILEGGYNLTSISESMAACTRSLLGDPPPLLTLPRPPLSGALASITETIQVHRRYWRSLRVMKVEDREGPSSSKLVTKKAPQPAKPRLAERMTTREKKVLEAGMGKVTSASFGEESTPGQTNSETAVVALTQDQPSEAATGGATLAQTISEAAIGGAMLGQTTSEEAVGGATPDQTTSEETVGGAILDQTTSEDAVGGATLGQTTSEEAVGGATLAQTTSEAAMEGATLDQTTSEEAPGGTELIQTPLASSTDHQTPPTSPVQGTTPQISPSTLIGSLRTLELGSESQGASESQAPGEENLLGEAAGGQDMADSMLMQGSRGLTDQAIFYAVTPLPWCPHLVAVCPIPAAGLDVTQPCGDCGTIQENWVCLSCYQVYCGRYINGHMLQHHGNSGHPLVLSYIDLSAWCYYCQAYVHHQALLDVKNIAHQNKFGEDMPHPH
Nature of the test: HDAC6 enzyme activity inhibition test (HDAC Fluorometric Drug Discovery Kit). It is filed as biochemical. As to conditions: for HDAC6 selectivity (fold): HDAC6 over HDAC1; for IC50: human recombinant HDAC6, same protocol as HDAC1. The procedure, abridged:
(§1)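 IC50 derived from fluorescence (Ex 360, Em 460) following 30 min development with Developer II. Each reaction held 0.3 μg human recombinant HDAC1 or HDAC6, 10 μM Fluor de Lys SIRT1 substrate and 5-fold serially diluted compound, incubated 60 min at 30 °C.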

Test [2] has as its target T2, human recombinant HDAC1 (Homo sapiens, UniProt Q13547).
T2 construct: purchased Enzo Life Science BML-SE456
As to the kind of experiment: HDAC1 enzyme activity inhibition test (HDAC Fluorometric Drug Discovery Kit). Particulars: 30° C., 60 minutes, 10 μM substrate. It is filed as biochemical. The procedure, abridged:
as §1

T2 sequence (Q13547 whole entry): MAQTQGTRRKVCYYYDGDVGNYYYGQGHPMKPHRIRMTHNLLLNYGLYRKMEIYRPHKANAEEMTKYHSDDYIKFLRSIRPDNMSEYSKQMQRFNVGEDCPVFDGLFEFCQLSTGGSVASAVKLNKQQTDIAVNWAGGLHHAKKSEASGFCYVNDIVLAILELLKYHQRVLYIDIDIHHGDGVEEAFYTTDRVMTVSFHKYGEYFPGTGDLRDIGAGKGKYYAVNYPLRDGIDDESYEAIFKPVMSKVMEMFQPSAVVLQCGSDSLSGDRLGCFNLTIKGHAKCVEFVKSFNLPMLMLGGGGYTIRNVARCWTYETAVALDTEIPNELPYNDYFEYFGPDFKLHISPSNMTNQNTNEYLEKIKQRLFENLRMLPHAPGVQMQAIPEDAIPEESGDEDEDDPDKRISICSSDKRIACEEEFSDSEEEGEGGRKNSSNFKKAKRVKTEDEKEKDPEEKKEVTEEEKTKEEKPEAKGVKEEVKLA

For the compound `FC(F)c1nnc(-c2ccc(Cn3nc(-c4ccc(CN5CCC5)s4)oc3=S)nc2)o1` [Compound 123, 5-[5-(azetidine-1-ylmethyl)-2-thienyl]-3-[[5-[5-(difluoromethyl)-1,3,4-oxadiazol-2-yl]-2-pyridyl]methyl]-1,3,4-oxadiazol-2-thione], in test [1], the “HDAC6 selectivity (fold)” value was 1109 fold and the IC50 amounted to 45.1 nM. Besides, the IC50 in test [2] is more than 50000 nM.
The corresponding values for `O=c1oc(-c2ccccc2)cn1Cc1ccc(-c2nnc(C(F)F)o2)cn1` [Compound 142, 3-((5-(5-(difluoromethyl)-1,3,4-oxadiazol-2-yl)pyridin-2-yl)methyl)-5-phenyloxazol-2(3H)-one] are 484 fold, 103 nM and more than 50000 nM.
Take `O=c1sc(-c2ccc(C3CCN(C4COC4)CC3)cc2)nn1Cc1ccc(-c2nnc(C(F)F)o2)cn1` [Compound 56, 3-[[5-[5-(difluoromethyl)-1,3,4-oxadiazol-2-yl]-2-pyridyl]methyl]-5-[4-[1-(oxetane-3-yl)-4-piperidyl]phenyl]-1,3,4-thiadiazol-2-one]: in test [1], the “HDAC6 selectivity (fold)” value was determined as 422 fold and the IC50 is 118 nM. The IC50 in test [2] is more than 50000 nM.
The matching figures for `O=c1sc(-c2cccc(CN3CCN(C4CS(=O)(=O)C4)CC3)c2)nn1Cc1ccc(-c2nnc(C(F)F)o2)cn1` [Compound 65, 3-[[5-[5-(difluoromethyl)-1,3,4-oxadiazol-2-yl]-2-pyridyl]methyl]-5-[3-[[4-(1,1-dioxothietan-3-yl)piperazin-1-yl]methyl]phenyl]-1,3,4-thiadiazol-2-one]: 537 fold, 93.1 nM and more than 50000 nM.
The matching figures for `Cc1ncc(-c2nn(Cc3ncc(-c4nnc(C(F)F)o4)cc3F)c(=S)o2)s1` [Compound 61, 3-[[5-[5-(difluoromethyl)-1,3,4-oxadiazol-2-yl]-3-fluoro-2-pyridyl]methyl]-5-(2-methylthiazol-5-yl)-1,3,4-oxadiazol-2-thione]: 540 fold, 92.6 nM and more than 50000 nM.
The corresponding values for `CC(C)N1CCN(c2ccc(-c3nn(Cc4ccc(-c5nnc(C(F)F)o5)cn4)c(=O)o3)c(F)c2)CC1` [Compound 25, 3-[[5-[5-(difluoromethyl)-1,3,4-oxadiazol-2-yl]-2-pyridyl]methyl]-5-[2-fluoro-4-(4-isopropylpiperazin-1-yl)phenyl]-1,3,4-oxadiazol-2-one] are 642 fold, 77.9 nM and more than 50000 nM.
For the compound `Fc1cc(-c2nnc(C(F)F)o2)cnc1Cn1nc(-c2ccccn2)oc1=S` [Compound 47, 3-[[5-[5-(difluoromethyl)-1,3,4-oxadiazol-2-yl]-3-fluoro-2-pyridyl]methyl]-5-(2-pyridyl)-1,3,4-oxadiazol-2-thione], in test [1], the “HDAC6 selectivity (fold)” value is listed as 1548 fold and the IC50 was found to be 32.3 nM. In addition, the IC50 in test [2] was more than 50000 nM.
The corresponding values for `O=c1oc(-c2cccc3[nH]ccc23)nn1Cc1ccc(-c2nnc(C(F)F)o2)cn1` [Compound 34, 3-[[5-[5-(difluoromethyl)-1,3,4-oxadiazol-2-yl]-2-pyridyl]methyl]-5-(1H-indol-4-yl)-1,3,4-oxadiazol-2-one] are 1695 fold, 29.5 nM and more than 50000 nM.
The matching figures for `CC(C)N1CCc2cc(-c3nn(Cc4ccc(-c5nnc(C(F)F)o5)cn4)c(=S)o3)sc2C1` [Compound 141, 3-[[5-[5-(difluoromethyl)-1,3,4-oxadiazol-2-yl]-2-pyridyl]methyl]-5-(6-isopropyl-5,7-dihydro-4H-thieno[2,3-c]pyridin-2-yl)-1,3,4-oxadiazol-2-thione]: 893 fold, 56 nM and more than 50000 nM.
The corresponding values for `FC(F)c1nnc(-c2ccc(Cn3nc(-c4cccc(CN5CCCC5)c4)oc3=S)nc2)o1` [Compound 86, 3-[[5-[5-(difluoromethyl)-1,3,4-oxadiazol-2-yl]-2-pyridyl]methyl]-5-[3-(pyrrolidin-1-ylmethyl)phenyl]-1,3,4-oxadiazol-2-thione] are 760 fold, 65.8 nM and more than 50000 nM.
`Fc1cc(-c2nnc(C(F)F)o2)cnc1Cn1nc(-c2cccnc2)oc1=S` [Compound 62, 3-[[5-[5-(difluoromethyl)-1,3,4-oxadiazol-2-yl]-3-fluoro-2-pyridyl]methyl]-5-(3-pyridyl)-1,3,4-oxadiazol-2-thione]: in test [1], the “HDAC6 selectivity (fold)” value was 500 fold and the IC50 was 100 nM. Moreover, the IC50 in test [2] is more than 50000 nM.
The corresponding values for `CN(C)Cc1cccc(-c2nn(Cc3ncc(-c4nnc(C(F)F)o4)cc3F)c(=S)o2)c1` [Compound 117, 3-[[5-[5-(difluoromethyl)-1,3,4-oxadiazol-2-yl]-3-fluoro-2-pyridyl]methyl]-5-[3-[(dimethylamino)methyl]phenyl]-1,3,4-oxadiazol-2-thione] are 675 fold, 74.1 nM and more than 50000 nM.
Turning to `FC(F)c1nnc(-c2ccc(Cn3nc(-c4cccc(CN5CCCCC5)c4)oc3=S)nc2)o1` [Compound 87, 3-[[5-[5-(difluoromethyl)-1,3,4-oxadiazol-2-yl]-2-pyridyl]methyl]-5-[3-(1-piperidylmethyl)phenyl]-1,3,4-oxadiazol-2-thione], the “HDAC6 selectivity (fold)” value in test [1] was 556 fold. Further, the IC50 in test [1] is 89.9 nM; in test [2], more than 50000 nM.
Turning to `O=c1sc(-c2ccccn2)nn1Cc1ccc(-c2nnc(C(F)F)o2)cn1` [Compound 49, 3-[[5-[5-(difluoromethyl)-1,3,4-oxadiazol-2-yl]-2-pyridyl]methyl]-5-(2-pyridyl)-1,3,4-thiadiazol-2-one], in test [1], the “HDAC6 selectivity (fold)” value is on record as 656 fold and the half-inhibitory concentration (IC50) turned out to be 76.2 nM. Also, in test [2], the IC50 is more than 50000 nM.
The corresponding values for `CN1CCN(c2cccc(-c3nn(Cc4ccc(-c5nnc(C(F)F)o5)cn4)c(=O)o3)c2)CC1` [Compound 37, 3-[[5-[5-(difluoromethyl)-1,3,4-oxadiazol-2-yl]-2-pyridyl]methyl]-5-[3-(4-methylpiperazin-1-yl)phenyl]-1,3,4-oxadiazol-2-one] are 512 fold, 97.7 nM and more than 50000 nM.
The corresponding values for `FC(F)c1nnc(-c2ccc(Cn3nc(-c4cccc(N5CCN(C6CCCC6)CC5)n4)oc3=S)nc2)o1` [Compound 102, 5-[6-(4-cyclopentylpiperazin-1-yl)-2-pyridyl]-3-[[5-[5-(difluoromethyl)-1,3,4-oxadiazol-2-yl]-2-pyridyl]methyl]-1,3,4-oxadiazol-2-thione] are 1188 fold, 42.1 nM and more than 50000 nM.
For the compound `O=c1oc(-c2cccc(F)c2)cn1Cc1ccc(-c2nnc(C(F)F)o2)cn1` [Compound 143, 3-((5-(5-(difluoromethyl)-1,3,4-oxadiazol-2-yl)pyridin-2-yl)methyl)-5-(3-fluorophenyl)oxazol-2(3H)-one], in test [1], the “HDAC6 selectivity (fold)” value turned out to be 374 fold and the IC50 is 134 nM. Moreover, the IC50 in test [2] is more than 50000 nM.
The corresponding values for `CCN1CCN(c2cccc(-c3nn(Cc4ncc(-c5nnc(C(F)F)o5)cc4F)c(=S)o3)n2)CC1` [Compound 103, 3-[[5-[5-(difluoromethyl)-1,3,4-oxadiazol-2-yl]-3-fluoro-2-pyridyl]methyl]-5-[6-(4-ethylpiperazin-1-yl)-2-pyridyl]-1,3,4-oxadiazol-2-thione] are 1302 fold, 38.4 nM and more than 50000 nM.

The values above are taken from patent publication US20260327214A1, “1,3,4-OXADIAZOLE DERIVATIVE COMPOUNDS AS HISTONE DEACETYLASE 6 INHIBITOR, AND USES THEREOF” (CHONG KUN DANG PHARMACEUTICAL CORP., priority 2022, published 2026).
